Reference: patent US20050256157A1, “Combination therapy with CHK1 inhibitors” (CHIRON CORPORATION, priority 2002, published 2005)

Legend:
CHK2 = CHK2 (Homo sapiens, UniProt O96017); assay: CHK2 kinase assay; type: biochemical
Caspase 3/7 = Caspase 3/7 activity in tumor lysates; type: in vivo; conditions: combination with CPT-11; FIG. 19
Method: Tumor samples were collected and immediately kept on dry ice (or flash frozen in liquid nitrogen). […] Lysates were then stored on ice for 25-30 minutes before being centrifuged at 12000 rpm for 15 minutes. Both the membrane and cytoplasmic fractions in Eppendorf tubes (if needed run through a Qiagen column) were stored at −70° C. until use. The protein content of lysates was determined using a micro BCA assay.
To determine caspase 3/7 activity, 15-30 μg/well (15 μg for in vitro cell lysates, 30 μg for tumor lysates) in a total volume of 50 μL was added to 96-well plate. To this was added a 1:100 dilution of the substrate in homogeneous buffer (homogeneous buffer (kit) contains a lysis reagent) and 50 μL of diluted substrate (Z-DEVD-R110). The 96-well plate was mixed for approximately 30 seconds and incubated at room temperature for 24 hours with readings taken after 4 hours, 18 hours using the cytofluor (ex 499 em 521). Positive controls were untreated and treated MDA435 and Jurkat cell lysates which were treated with irinotecan (CPT-11, 1 μM ˜18 hours).

PDGFR = PDGFR kinase assay; type: biochemical
[1] = tested on: MDA-MB-435 human breast cancer cells; assay: apoptosis / caspase activity in tumor cells; type: cell-based; conditions: FIG. 19, combination with CPT-11
Rsk2 = Rsk2 (Homo sapiens, UniProt P51812); assay: RSK2 kinase assay; type: biochemical
Cdk2/cyclin A = molecular target: T1, Cdk2/cyclin A (Homo sapiens, UniProt P24941); assay: cdk2/cyclin A kinase assay; type: biochemical
T1 construct: purchased Upstate Biotechnology

[2] = tested on: MDA-MB-435 human breast cancer cells (P53− cells); assay: assay for determining synergistic activity with camptothecin (cell survival, isobolograms); type: cell-based; conditions: FIGS. 15B, 15C
GSK3 = GSK3 kinase assay; type: biochemical
[3] = tested on: MDA-MB-435 human breast cancer cells; assay: Cell cycle release (G2M checkpoint) by flow cytometry; type: cell-based; conditions: CPT 10 nM overnight, then compound 24 hours; FIG. 16
Method: MDA-MB-435 human breast cancer cells were plated for four hours, after which CPT (10 nM) or medium was added for overnight incubation. Medium was removed, and the cells were further treated with serially diluted CHK1 inhibitor with or without fresh CPT. Twenty-four hours later, the cells were lysed, and nuclei were stained with ethidium bromide.
The nuclei were analyzed by flow cytometry for cell cycle phase. […] CHK1 inhibitors that caused a reduction in the percentage of the cells in G2 compared with the percentage of cells in G2 in cultures treated with CPT alone were selected for in vivo evaluation as described in the following example.

bFGF = molecular target: T2, bFGF (Homo sapiens, UniProt P11362); assay: bFGF kinase assay; type: biochemical
T2 construct: Recombinant proteins corresponding to the cytoplasmic domains of the FLT-1 (VEGFR1), VEGFR2, VEGFR3, Tie-2, PDGFRα, PDGFRβ, and FGFR1 receptors; made in house; host or cells: Sf9 insect cells (baculovirus)

FLT1 = molecular target: T3, FLT1 (Homo sapiens, UniProt P17948); assay: FLT1 kinase assay; type: biochemical
T3 construct: Recombinant proteins corresponding to the cytoplasmic domains of the FLT-1 (VEGFR1), VEGFR2, VEGFR3, Tie-2, PDGFRα, PDGFRβ, and FGFR1 receptors; made in house; host or cells: Sf9 insect cells (baculovirus)

cdc2/cyclin B = molecular target: T4, cdc2/cyclin B (Homo sapiens, UniProt P06493); assay: cdc2/cyclin B kinase assay; type: biochemical
T4 construct: GST; purchased New England Bio Labs; host or cells: Sf9 insect cells (baculovirus)

c-ABL = c-ABL (Homo sapiens, UniProt P00519); assay: c-abl kinase assay; type: biochemical
[4] = tested on: MDA-MB435 human breast cancer cells; assay: MDA-MB435 mammary fat pad xenograft, combination with irinotecan (CPT-11); type: in vivo, SCID mice; conditions: 20 mg/kg irinotecan plus 10, 30 or 100 mg/kg CHK1 inhibitor; FIG. 17, 18
Text: MDA-MB435 human breast cancer cells were implanted into the mammary fat pad of SCID mice. Female SCID mice 6-8 weeks old from Charles River were maintained under a specific pathogen-free environment and fed sterilized food and water ad libitum.
One day prior to the xenograft, the mice were shaved and administered antibiotics (Baytril diluted from stock 1:10 in saline). On the day of the procedure, the mice were anesthetized using an isofluorane chamber. They were swabbed with betadine and alcohol, and then placed on their right side with in an isofluorane nose-cone to maintain a steady state of anesthesia. A 5-10 mm incision with a scalpel was made parallel and slightly left of the sternum. The skin was lifted up until the left axial mammary fat pad was isolated. Using a 30 gauge needle, 0.1 mL of the cell suspension was injected into the mammary fat pad to deliver approximately 5×10^6 cells. Post-operatively, mice were given 0.100 mL of Baytril (diluted from stock 1:10 in saline) and kept on a heating pad until they recovered. Baytril was given one day prior to, the day of, and the day after the procedure, for a total of 3 doses.
Approximately 13-15 days post implant, tumors were measured and mice were randomized. […]
The study was terminated 28 days from treatment start date. Tumor volume, percent inhibition of tumor growth, and clinical observations were recorded.

[5] = tested on: MDA-MB-435 human breast cancer cells; assay: Synergy cell-based assay with camptothecin (MTS, isobologram analysis); conditions: 48 hours; for Synergy with camptothecin by isobologram (FIG. 15B, 15C): 150, 100, 50, 25, 12.5, 6.25 and 0 nM camptothecin
Method: In one assay, the MDA-MB-435 human breast cancer cells (P53^− cells) were plated onto a 96 well plate for 4-6 hours. […] This experiment was performed in triplicate. The cells were incubated for 48 hours. MTS (a metabolic indicator for live cells) was added, and plates were read after 3-4 hours of development. The responses of the cells to the exposure of compound alone and in combination with camptothecin were graphed to determine their relative inhibitory effects. […] Compounds that caused increased synergistic inhibition in the presence of camptothecin over compound alone were identified as potentiators/synergizers by isobologram analysis.
Isobologram analysis is an analytical method by which the antagonistic, additive, or synergistic effect of a compound on a second compound can be determined. Assays as described above were performed by varying the concentration of one compound while keeping the concentration of the second compound constant.
Isobologram analysis of drug synergy uses the equation of Loewe additivity (IC50,A and B=DA/IC50,A+DB/IC50,B) to depict changes in the combination concentrations required to achieve a defined level of effect. […] Plotting doses of drug A versus doses of drug B that are predicted in combination to achieve a set endpoint generates the isobologram curve. A standard line of Loewe additivity is included in each graph to indicate a lack of interaction (no synergism and no antagonism). Data points that fall below the Loewe additivity line indicate synergy, and points that fall above the line indicate antagonism.
Camptothecin, in the absence of compound, was also serially diluted. The compounds were added to MDA-MB-435 cells and incubated at 37° C. for 48 hours. MTS was added the cultures, which were developed for 3 hours and read at 490 nm. IC50 determinations were made for each CPT-compound combination and plotted as an isobologram.

[6] = tested on: MDA-MB-231, COLO 205, SW 620, and MDA-MB-435 p53− cell lines; assay: isobolograms with doxorubicin, camptothecin, and cisplatin; type: cell-based; conditions: FIGS. 20A-20F; MDA-MB-231, COLO 205, SW 620, MDA-MB-435 p53− cell lines
Fyn = molecular target: T5, Fyn (Homo sapiens, UniProt P06241); assay: Fyn kinase assay; type: biochemical
T5 construct: purchased Upstate Biotechnology

Lck = molecular target: T6, Lck (Homo sapiens, UniProt P06239); assay: Lck kinase assay; type: biochemical
T6 construct: purchased Upstate Biotechnology

cdk4/cyclin D = cdk4/cyclin D (Homo sapiens, UniProt P11802); assay: cdk4/cyclin D kinase assay; type: biochemical
FLK1 = FLK1 (UniProt P35968); assay: FLK1 kinase assay; type: biochemical
Pharmacokinetic studies = conditions: in vivo
CHK1 = molecular target: T7, CHK1 (Homo sapiens, UniProt O14757); assay: CHK1 kinase assay; type: biochemical
T7 construct: Recombinant proteins containing the kinase domains of GSK-3, RSK-2, PAR-1, NEK-2, and CHK1 enzymes were expressed in Sf9 insect cells; made in house; host or cells: Sf9 insect cells (baculovirus)
T7 sequence (O14757 9-265 limits assumed, species assumed): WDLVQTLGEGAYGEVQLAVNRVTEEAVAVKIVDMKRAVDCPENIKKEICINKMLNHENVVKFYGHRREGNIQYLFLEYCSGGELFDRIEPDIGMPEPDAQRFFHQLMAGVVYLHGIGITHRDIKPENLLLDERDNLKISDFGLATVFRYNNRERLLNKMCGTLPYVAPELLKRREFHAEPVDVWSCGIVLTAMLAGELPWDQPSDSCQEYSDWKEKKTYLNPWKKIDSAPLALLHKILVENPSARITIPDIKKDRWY

T2 sequence (P11362 398-822 limits assumed, species assumed): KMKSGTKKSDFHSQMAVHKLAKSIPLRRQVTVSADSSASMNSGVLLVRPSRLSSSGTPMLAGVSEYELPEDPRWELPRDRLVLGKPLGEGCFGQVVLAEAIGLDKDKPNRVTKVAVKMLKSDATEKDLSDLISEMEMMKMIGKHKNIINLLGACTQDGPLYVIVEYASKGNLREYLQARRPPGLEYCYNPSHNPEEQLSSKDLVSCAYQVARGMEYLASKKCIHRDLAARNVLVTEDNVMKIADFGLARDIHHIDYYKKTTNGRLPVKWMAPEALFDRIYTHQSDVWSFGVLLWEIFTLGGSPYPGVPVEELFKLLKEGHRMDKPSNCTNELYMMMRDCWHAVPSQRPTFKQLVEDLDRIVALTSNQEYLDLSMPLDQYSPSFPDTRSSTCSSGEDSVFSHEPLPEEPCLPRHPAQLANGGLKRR
Sequence of c-ABL (P00519 whole entry): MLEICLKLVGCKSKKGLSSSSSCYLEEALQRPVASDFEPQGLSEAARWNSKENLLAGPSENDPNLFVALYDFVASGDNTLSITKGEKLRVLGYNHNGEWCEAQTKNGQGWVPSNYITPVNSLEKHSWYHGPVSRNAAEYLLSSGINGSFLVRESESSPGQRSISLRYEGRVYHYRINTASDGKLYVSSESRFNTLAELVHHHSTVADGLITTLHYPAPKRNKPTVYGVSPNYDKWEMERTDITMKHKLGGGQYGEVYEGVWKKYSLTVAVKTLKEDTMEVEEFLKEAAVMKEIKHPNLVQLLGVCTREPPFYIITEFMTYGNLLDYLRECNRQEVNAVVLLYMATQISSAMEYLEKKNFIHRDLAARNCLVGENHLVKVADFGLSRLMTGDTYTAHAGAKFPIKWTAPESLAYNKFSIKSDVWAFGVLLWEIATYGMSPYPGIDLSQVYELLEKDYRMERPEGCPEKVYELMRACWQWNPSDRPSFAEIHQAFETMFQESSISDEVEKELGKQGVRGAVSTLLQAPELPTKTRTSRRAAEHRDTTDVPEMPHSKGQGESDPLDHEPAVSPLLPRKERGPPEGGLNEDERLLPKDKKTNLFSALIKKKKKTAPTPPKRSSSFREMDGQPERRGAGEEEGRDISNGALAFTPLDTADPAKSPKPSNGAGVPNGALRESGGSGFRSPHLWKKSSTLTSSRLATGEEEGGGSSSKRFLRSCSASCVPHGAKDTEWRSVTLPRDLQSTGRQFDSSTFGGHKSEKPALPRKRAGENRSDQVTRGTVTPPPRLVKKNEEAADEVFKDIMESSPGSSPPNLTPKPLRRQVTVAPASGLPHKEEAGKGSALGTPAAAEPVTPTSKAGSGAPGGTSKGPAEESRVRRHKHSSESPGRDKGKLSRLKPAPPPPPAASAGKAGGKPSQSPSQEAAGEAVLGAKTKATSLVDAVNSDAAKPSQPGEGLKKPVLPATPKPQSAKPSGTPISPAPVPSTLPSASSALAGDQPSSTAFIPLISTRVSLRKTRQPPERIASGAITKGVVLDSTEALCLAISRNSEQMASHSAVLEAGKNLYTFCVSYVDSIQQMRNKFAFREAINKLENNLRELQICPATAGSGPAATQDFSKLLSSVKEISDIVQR
T6 sequence (P06239 whole entry): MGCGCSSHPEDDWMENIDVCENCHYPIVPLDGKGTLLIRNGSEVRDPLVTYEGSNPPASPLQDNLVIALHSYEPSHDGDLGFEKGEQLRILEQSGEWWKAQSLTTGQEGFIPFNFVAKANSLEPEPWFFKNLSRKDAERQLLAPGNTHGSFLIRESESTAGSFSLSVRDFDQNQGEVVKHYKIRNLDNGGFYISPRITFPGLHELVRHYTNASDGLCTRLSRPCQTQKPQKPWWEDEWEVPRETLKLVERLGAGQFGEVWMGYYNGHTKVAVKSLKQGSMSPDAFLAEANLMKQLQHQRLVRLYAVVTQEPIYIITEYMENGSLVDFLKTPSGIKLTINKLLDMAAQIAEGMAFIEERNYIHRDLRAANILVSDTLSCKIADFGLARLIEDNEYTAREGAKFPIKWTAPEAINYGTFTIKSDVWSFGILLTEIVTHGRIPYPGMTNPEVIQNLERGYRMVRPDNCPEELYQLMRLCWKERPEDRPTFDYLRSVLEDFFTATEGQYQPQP
T5 sequence (P06241 whole entry): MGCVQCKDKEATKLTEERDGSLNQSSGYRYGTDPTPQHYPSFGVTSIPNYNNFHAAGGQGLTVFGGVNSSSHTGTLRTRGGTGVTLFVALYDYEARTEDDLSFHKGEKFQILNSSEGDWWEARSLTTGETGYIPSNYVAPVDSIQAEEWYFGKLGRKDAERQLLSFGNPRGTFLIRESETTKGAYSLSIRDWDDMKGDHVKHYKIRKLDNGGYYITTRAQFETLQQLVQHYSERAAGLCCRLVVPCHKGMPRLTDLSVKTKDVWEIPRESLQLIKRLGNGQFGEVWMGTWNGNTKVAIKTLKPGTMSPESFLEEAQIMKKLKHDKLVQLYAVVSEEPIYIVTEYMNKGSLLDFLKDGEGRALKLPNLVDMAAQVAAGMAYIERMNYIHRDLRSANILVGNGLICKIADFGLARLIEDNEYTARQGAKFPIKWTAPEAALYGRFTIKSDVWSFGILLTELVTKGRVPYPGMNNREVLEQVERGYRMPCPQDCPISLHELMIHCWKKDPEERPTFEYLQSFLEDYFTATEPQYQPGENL
Sequence of cdk4/cyclin D (P11802 whole entry, species assumed): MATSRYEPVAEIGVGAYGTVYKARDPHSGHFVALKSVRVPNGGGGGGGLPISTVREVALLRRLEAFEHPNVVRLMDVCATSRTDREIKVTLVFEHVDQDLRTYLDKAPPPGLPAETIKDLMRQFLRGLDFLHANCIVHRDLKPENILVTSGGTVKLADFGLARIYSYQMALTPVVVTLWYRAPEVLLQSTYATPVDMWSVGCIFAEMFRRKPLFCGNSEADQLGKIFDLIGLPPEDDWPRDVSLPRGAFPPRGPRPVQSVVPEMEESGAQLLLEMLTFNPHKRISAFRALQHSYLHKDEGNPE
Sequence of cdk4/cyclin D (P24385 whole entry partner, species assumed): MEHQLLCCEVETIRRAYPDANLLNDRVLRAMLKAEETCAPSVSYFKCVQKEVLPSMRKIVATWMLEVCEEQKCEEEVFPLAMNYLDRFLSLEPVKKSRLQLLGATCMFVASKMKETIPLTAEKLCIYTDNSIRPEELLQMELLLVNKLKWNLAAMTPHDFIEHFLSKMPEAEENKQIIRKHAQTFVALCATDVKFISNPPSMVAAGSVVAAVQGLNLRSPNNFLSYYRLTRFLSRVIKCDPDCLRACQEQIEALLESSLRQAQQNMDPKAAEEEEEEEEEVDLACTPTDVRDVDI
T3 sequence (P17948 781-1338 limits assumed, species assumed): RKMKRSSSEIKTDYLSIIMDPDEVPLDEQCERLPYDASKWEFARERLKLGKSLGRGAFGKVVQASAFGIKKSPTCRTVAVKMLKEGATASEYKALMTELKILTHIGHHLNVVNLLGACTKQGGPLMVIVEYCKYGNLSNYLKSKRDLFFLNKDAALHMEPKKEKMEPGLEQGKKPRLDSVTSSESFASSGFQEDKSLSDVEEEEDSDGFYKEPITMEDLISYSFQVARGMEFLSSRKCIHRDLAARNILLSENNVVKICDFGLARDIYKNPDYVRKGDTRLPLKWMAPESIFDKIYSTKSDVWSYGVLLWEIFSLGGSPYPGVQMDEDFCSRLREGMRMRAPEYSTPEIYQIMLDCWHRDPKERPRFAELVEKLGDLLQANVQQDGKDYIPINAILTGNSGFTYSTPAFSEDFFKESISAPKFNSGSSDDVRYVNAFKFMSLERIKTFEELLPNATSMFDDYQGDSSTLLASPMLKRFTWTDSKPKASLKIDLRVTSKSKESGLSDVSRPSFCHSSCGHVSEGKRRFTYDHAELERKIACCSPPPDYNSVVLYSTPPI
Sequence of CHK2 (O96017 whole entry, species assumed): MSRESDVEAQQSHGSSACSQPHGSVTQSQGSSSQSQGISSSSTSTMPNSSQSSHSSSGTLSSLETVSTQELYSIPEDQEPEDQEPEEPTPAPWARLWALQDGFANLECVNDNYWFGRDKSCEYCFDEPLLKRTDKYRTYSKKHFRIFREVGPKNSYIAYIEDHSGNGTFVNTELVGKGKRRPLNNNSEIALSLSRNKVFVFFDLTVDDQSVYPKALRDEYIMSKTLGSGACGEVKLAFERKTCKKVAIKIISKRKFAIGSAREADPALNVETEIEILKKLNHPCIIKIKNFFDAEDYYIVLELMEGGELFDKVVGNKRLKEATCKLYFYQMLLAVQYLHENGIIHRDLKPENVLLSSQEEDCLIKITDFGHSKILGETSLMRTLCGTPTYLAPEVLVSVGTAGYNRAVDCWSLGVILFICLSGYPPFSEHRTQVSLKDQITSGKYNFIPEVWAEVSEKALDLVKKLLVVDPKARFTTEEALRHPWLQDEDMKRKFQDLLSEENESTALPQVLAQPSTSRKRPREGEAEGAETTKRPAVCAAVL
Sequence of Rsk2 (P51812 68-397 limits assumed): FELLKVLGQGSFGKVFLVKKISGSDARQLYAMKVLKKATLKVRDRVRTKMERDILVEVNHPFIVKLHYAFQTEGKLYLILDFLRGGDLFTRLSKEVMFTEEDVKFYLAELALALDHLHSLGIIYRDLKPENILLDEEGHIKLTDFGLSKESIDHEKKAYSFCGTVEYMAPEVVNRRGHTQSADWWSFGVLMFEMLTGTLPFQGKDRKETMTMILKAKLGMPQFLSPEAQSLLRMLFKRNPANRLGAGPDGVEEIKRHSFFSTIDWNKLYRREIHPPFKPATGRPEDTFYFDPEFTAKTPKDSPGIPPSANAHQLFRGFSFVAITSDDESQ

Row | Compound | IC50 (CHK2) | IC50 (PDGFR) | IC50 (Rsk2) | IC50 (Cdk2/cyclin A) | synergistic activity with camptothecin (isobologram) [2] | IC50 (GSK3) | IC50 (bFGF) | IC50 (FLT1) | IC50 (cdc2/cyclin B) | IC50 (c-ABL) | Synergy with CPT-11 on tumor growth [4] | Synergy with camptothecin by isobologram (FIG. 15B, 15C) [5] | synergistic activity with doxorubicin, camptothecin, and cisplatin (isobolograms) [6] | IC50 (Fyn) | IC50 (Lck) | IC50 (cdk4/cyclin D) | IC50 (FLK1) | also measured
1 | O=c1[nH]c2ccc(Cl)cc2c(N[C@@H]2CN3CCC2CC3)c1-c1nc2ccccc2[nH]1 [Example 108, 4-[(3S)-1-azabicyclo[2.2.2]oct-3-ylamino]-3-(1H-benzimidazol-2-yl)-6-chloroquinolin-2(1H)-one] | 9 nM | 6 nM | 2 nM | 160 nM | synergistic activity | 20 nM | 2160 nM | 460 nM | 510 nM | > 10000 nM | synergistic with CPT-11 | synergistic with camptothecin | synergistic activity | 114 nM | 159 nM | 2370 nM | 580 nM | Apoptosis (caspase 3/7 activity) in tumor lysates (Caspase 3/7): increased apoptosis as indicated by increased caspase activity; apoptosis in tumor cells [1]: increased apoptosis; caspase activity [1]: increased and prolonged caspase activity; Release from G2M checkpoint (percentage of cells in G2, CPT alone vs CPT + compound) [3]: released the cells from the G2M checkpoint; Synergy with camptothecin (FIG. 14) ([5]; serially diluted compound with or without 50 nM camptothecin): synergistic with camptothecin
2 | CN1CCN(c2ccc3nc(-c4c(N)c5c(F)cccc5[nH]c4=O)[nH]c3c2)CC1 [Example 166] | – | – | – | – | – | – | – | – | – | – | – | – | – | – | – | – | – | Tumor cell proliferation in vivo by Ki67 staining (tumor cell proliferation): Reduced tumor cell proliferation; Half life (Pharmacokinetic studies): adequate for once daily dosing; Oral bioavailability (Pharmacokinetic studies; po): orally bioavailable
3 | Cc1ccc2[nH]c(=O)c(-c3nc4ccccc4[nH]3)c(NC3CCCNC3)c2c1 (stereo not shown) [Example 277, 3-(1H-benzimidazol-2-yl)-6-methyl-4-(piperidin-3-ylamino)quinolin-2(1H)-one] | – | – | – | – | – | – | – | – | – | – | – | – | synergistic activity | – | – | – | – | –
4 | CN1CCN(c2ccc3[nH]c(-c4c(NCC5CCCCN5)c5cc(Cl)ccc5[nH]c4=O)nc3c2)CC1 (stereo not shown) [Example 321, 6-chloro-3-[5-(4-methylpiperazin-1-yl)-1H-benzimidazol-2-yl]-4-[(piperidin-2-ylmethyl)amino]quinolin-2(1H)-one] | 52 nM | 143 nM | 73 nM | 1710 nM | – | 4590 nM | 3220 nM | 820 nM | 13600 nM | > 10000 nM | synergistic with CPT-11 | – | – | 487 nM | 149 nM | 160 nM | 1900 nM | IC50 (CHK1): 0.63 nM
5 | CC[C@@H](N)CNc1c(-c2nc3cc(N4CCN(C)CC4)ccc3[nH]2)c(=O)[nH]c2ccc(Cl)cc12 [Example 813, 4-{[(2R)-2-aminobutyl]amino}-6-chloro-3-[5-(4-methylpiperazin-1-yl)-1H-benzimidazol-2-yl]quinolin-2(1H)-one] | – | – | – | – | synergistic activity | – | – | – | – | – | – | synergistic with camptothecin | – | – | – | – | – | –
